Experimental data as given in patent US11098033B2, “Ku inhibitors and their use” (INDIANA UNIVERSITY RESEARCH AND TECHNOLOGY CORPORATION, priority 2016, dated 2021).
Where “and” joins values, the source holds several entries; their conditions need not be identical. Equal entries are not always repeated. Where two headings read alike, the source gives them in different places.

Assays:
[1] = system: NHEJ activity in H460 cells; test: Host cell reactivation assay of NHEJ mediated re-circularization of a linearized GFP plasmid; type: cell-based
From the text: Disruption of Ku-DNA binding should result in inhibition of NHEJ activity, and to test this inhibition we will employ a host cell reactivation assay. This assay utilizes a linearized plasmid encoding a GFP gene that is transfected into the cell and expressed upon NHEJ mediated re-circularization of the plasmid (Sears, CA., 2012 and Woods, D., 2015). Co-transfection of a circular RFP plasmid accounts for differences in transfection efficiency, and NHEJ mediated repair of the GFP plasmid can be quantified by assessing the ratio of green: red cells. This assay will be used to assess the Ku inhibitor compounds in H460 and HEK-293 cells, and the data obtained from these experiments will allow us to determine the sensitivity of the chemical compounds and effect of Ku inhibition on NHEJ activity. As this is a cellular assay, we will also utilize this assay to do a series of time course experiments to determine the optimal time to deliver the inhibitor to cells in order to achieve maximum inhibition of NHEJ activity.

[2] = target: T1, Recombinant human Ku heterodimer (Homo sapiens, UniProt P12956+P13010); test: Ku-DNA binding assay; conditions: several values in a cell = separate determinations, read-out: IC50
T1 construct: made in house; host or cells: insect cells infected with recombinant baculovirus
From the text: Ku is a DNA end-binding protein that is essential for the repair of DNA double strand breaks via the NHEJ pathway. The mechanism of DNA binding by Ku is via a toroid structure that encircles double-stranded DNA from a terminus.

[3] = system: NHEJ end joining in cell free extract from HEK 293; test: In vitro NHEJ (end joining) assay with cell free extract; type: biochemical; conditions: linearized plasmid DNA (3 kbp), HEK 293 cell free extract pre-incubated with inhibitor, ATP; read-out: IC50 of inhibition of end joining
Description: Radiolabeled linearized DNA was incubated with whole cell extracts with increasing amounts of inhibitor NG-02-132.
A linearized plasmid DNA (3 kbp) is incubated with a cell free extract prepared from a NHEJ competent cell (HEK 293) and ATP. The results presented in FIG. 8 show the substrate alone in lane 1 and the degree of end joining control reactions as evidenced by the formation of plasmid multimers.

[4] = system: H460 non-small cell lung cancer cells, EMX1 locus; test: Crispr/Cas9 mediated gene insertion at the EMX1 locus; type: cell-based
From the text: To assess the effect of Ku inhibitors on genome engineering efficiency we designed an assay to quantify the recombination efficiency of a Crispr/Cas9 mediated gene insertion event. A donor insert of 2.2 kbp encoding puromycin resistance and a GFP gene was flanked by 800 bp homology arms directing the insert to the EMX1 locus. A guide RNA directing the Cas9 nuclease to the EMX1 gene was purchased and co-transfected with the donor construct and Cas9 expressing plasmid in H460 non-small cell lung cancer cells that were either treated with vehicle or 20 uM 205. 24 hours later, cells were placed under selection with puromycin for 5 days and plated in 96-well plates for single cell cloning. Clones were expanded, genomic DNA isolated and location specific PCR analysis was performed to assess accurate gene insertion at the EMX1 locus.

[5] = Table 2, synthesized derivatives
[6] = Table 1, purchased second generation inhibitors

T1 sequence (P12956 whole entry): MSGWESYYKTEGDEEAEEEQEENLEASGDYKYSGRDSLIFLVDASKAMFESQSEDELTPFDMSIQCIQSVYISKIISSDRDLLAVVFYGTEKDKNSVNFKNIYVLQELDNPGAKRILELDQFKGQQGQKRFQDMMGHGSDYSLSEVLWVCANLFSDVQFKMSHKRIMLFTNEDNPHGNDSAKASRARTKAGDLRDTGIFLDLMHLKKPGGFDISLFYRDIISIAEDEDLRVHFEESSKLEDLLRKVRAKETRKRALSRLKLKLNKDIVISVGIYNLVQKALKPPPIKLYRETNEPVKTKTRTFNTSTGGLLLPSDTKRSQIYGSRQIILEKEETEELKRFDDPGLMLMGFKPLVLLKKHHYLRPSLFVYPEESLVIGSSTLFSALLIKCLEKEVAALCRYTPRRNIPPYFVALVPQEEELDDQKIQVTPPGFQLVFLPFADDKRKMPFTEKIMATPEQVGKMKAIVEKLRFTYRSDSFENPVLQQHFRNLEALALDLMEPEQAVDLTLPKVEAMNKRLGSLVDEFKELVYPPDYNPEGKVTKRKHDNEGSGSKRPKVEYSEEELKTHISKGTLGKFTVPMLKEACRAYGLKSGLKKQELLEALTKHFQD
T1 sequence (P13010 whole entry): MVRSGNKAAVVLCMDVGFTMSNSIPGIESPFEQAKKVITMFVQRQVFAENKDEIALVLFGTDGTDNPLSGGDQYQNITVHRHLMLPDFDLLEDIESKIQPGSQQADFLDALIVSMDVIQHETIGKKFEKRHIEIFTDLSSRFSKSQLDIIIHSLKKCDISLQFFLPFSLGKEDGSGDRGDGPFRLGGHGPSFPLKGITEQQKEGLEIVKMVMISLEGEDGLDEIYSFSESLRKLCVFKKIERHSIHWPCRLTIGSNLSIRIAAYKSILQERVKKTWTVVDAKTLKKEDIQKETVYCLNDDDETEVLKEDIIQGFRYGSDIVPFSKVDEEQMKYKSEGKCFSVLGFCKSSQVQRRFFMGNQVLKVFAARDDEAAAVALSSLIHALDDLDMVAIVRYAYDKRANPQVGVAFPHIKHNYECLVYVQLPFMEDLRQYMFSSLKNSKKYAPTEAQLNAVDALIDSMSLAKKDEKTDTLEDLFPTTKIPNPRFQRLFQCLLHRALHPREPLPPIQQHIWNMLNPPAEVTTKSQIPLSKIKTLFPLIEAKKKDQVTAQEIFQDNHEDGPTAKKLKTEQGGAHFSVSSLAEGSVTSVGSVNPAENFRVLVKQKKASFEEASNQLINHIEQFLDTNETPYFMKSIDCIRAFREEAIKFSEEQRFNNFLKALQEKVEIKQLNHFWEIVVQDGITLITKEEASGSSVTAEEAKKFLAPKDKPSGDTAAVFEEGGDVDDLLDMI

IC50 [2, 6] | Compound | further results
40 µM and 16 µM | COC(=O)c1cccc(-c2ccc(/C=C3\C(=O)N(c4cccc(C(=O)O)c4)N=C3C(F)(F)F)o2)c1 [compound 2777, reference compound] | –
6.2 µM and 5 µM | C=CCOC(=O)c1cccc(-c2ccc(/C=C3\C(=O)N(c4ccc(Cl)c(C(=O)O)c4)N=C3C)o2)c1 [compound 2922, reference compound] | –
11 µM and 3.5 µM | CC1=NN(c2cccc(C(=O)O)c2)C(=O)/C1=C\c1ccc(-c2cccc(C(=O)OC(C)C)c2)o1 [compound 3125, reference compound] | –
4.3 µM and 8.1 µM | CCOC(=O)c1cccc(-c2ccc(/C=C3\C(=O)N(c4ccc(Cl)c(C(=O)O)c4)N=C3C)o2)c1 [compound 3278, reference compound] | –
31 µM and 5.7 µM | CC1=NN(c2ccc(Cl)c(C(=O)O)c2)C(=O)/C1=C\c1ccc(-c2cccc(C(=O)OC(C)C)c2)o1 [compound 3315, reference compound] | –
21.8 µM | CC1=NN(c2ccc(Cl)c(C(=O)O)c2)C(=O)/C1=C\c1ccc(-c2ccc3c(c2)C(=O)OC3)o1 [compound 4770, reference compound] | –
16.9 µM | C#CCOC(=O)c1cccc(-c2ccc(/C=C3\C(=O)N(c4ccc(Cl)c(C(=O)O)c4)N=C3C)o2)c1 [compound 7026, reference compound] | –
32 µM and 16 µM and 40 µM | CC1=NN(c2cccc(C(=O)O)c2)C(=O)/C1=C\c1ccc(-c2ccc3c(c2)C(=O)OC3)o1 [compound 7997, reference compound] | –

Second part, the compound before the results:

Compound | IC50 [2, 6] | further results
COc1cccc(NC(=O)c2cc(-c3ccc(/C=C4\C(=O)N(c5cccc(C(=O)O)c5)N=C4C)o3)ccc2Cl)c1 [NG-01-68/02-140/03-180, (Z)-3-(4-((5-(4-Chloro-3-((3-methoxyphenyl)carbamoyl)phenyl)furan-2-yl)methylene)-3-methyl-5-oxo-4,5-dihydro-1H-pyrazol-1-yl)benzoic acid] | – | NHEJ catalyzed repair events ([1]; H460 cells preincubated 2 hours prior to transfection of the reporters, measured 48 hours post transfection, without compound 26%, preliminary data): 17%; reduction of NHEJ catalyzed repair events ([1]; H460 cells, 2 hours preincubation, 48 hours post transfection, from 26% to 17%): 35%; IC50 [2, 5]: 6 µM and 15 µM and 4 µM (2×)
COc1cccc(NC(=O)c2cc(-c3ccc(CC4C(=O)N(c5cccc(C(=O)O)c5)N=C4C)o3)ccc2Cl)c1 (stereo not shown) [NG-02-132/ NG-02-149, 3-(4-((5-(4-Chloro-3-((3-methoxyphenyl)carbamoyl)phenyl)furan-2-yl)methyl)-3-methyl-5-oxo-4,5-dihydro-1H-pyrazol-1-yl)benzoic acid] | – | IC50 [2, 5]: 1 µM (2×) and 4 µM and 6 µM; IC50 [3]: ~15 µM
COc1cccc(NC(=O)c2cc(-c3ccc(CC4C(=O)N(c5cccc(-c6nnn[nH]6)c5)N=C4C)o3)ccc2Cl)c1 (stereo not shown) [NG-03-205, 5-(5-((1-(3-(1H-Tetrazol-5-yl)phenyl)-3-methyl-5-oxo-4,5-dihydro-1H-pyrazol-4-yl)methyl)furan-2-yl)-2-chloro-N-(3-methoxyphenyl)benzamide] | – | IC50 [2, 5]: 13 µM; Efficiency ([4]; +Inhibitor (20 uM), accurate gene insertion at EMX1 locus, −Inhibitor 14%): 80%; In/Out+ ([4]; +Inhibitor (20 uM), clones positive in location specific PCR, −Inhibitor 4): 4; Clones ([4]; +Inhibitor (20 uM), puromycin selection 5 days, single cell cloning, −Inhibitor 28): 5; increase in precise genome insertion efficiency ([4]; H460 cells, 20 uM, versus vehicle): greater than 6 fold
CC1=NN(c2cccc(C(=O)O)c2)C(=O)/C1=C\c1ccc(-c2cc([N+](=O)[O-])ccc2O)o1 [compound 1564, reference compound] | 21 µM and 7 µM | –
CC1=NN(c2cccc(C(=O)O)c2)C(=O)/C1=C\c1ccc(-c2ccc(Cl)c(C(=O)OCc3ccccc3Cl)c2)o1 [compound 2249, reference compound] | 2.9 µM | –
CC1=NN(c2cccc(C(=O)O)c2)C(=O)/C1=C\c1ccc(-c2ccc(C(=O)O)cc2)o1 [compound 2513, reference compound] | 150 µM | –
CCOC(=O)c1cccc(-c2ccc(/C=C3\C(=O)N(c4cccc(C(=O)O)c4)N=C3C)o2)c1 [compound 2714, reference compound] | 9.1 µM | –
CCCOC(=O)c1cc(-c2ccc(/C=C3\C(=O)N(c4cccc(C(=O)O)c4)N=C3C)o2)ccc1Cl [compound 2727, reference compound] | 7.6 µM and 5.7 µM | –
CCOC(=O)c1cc(-c2ccc(/C=C3\C(=O)N(c4cccc(C(=O)O)c4)N=C3C)o2)ccc1Cl [compound 2733, reference compound] | 4.2 µM and 9 µM | –
(Z)-2-chloro-5-(54(1-(3-cyanophenyl)-3-methyl-5-oxo-1,5-dihydro-4H-pyrazol-4-ylidene)methyl)furan-2-yl)-N-(3-methoxyphenyl)benzamide [NG-03-193] | – | IC50 [2, 5]: 25 µM
